Measured values published in US20050202511A1, “AMP-activated protein kinase (AMPK) inhibitor screening assay” (priority 2002, published 2005).
Where “and” joins values, the source holds several entries; their conditions need not be identical. Identical values can stand only once. Like-named read-outs stand apart in the source and are kept apart here. One block for each compound: values may come before it.

Legend:
[1] = molecular target: T1, CLC2 CBS domain pair G826D (Homo sapiens, UniProt P51788, G828D); test: Filter binding assay, GST-CBS domain fusion; settings: single-site model
T1 construct: DNAs encoding residues 582-840 of CLC2; made in house; host or cells: E. coli BL21 (DE3)
T1 sequence (P51788 582-840 G828D): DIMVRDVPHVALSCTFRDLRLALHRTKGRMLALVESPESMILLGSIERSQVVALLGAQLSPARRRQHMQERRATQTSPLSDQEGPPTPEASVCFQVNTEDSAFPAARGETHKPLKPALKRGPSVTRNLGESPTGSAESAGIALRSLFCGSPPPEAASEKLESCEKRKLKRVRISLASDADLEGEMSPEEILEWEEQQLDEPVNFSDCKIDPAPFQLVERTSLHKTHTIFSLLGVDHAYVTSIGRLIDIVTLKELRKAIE
Text: (§1) DNA encoding the CBS domain pair from the chloride channel CLC2 was also cloned and expressed. […] The G715E mutation, in the linker between the first and second CBS domains of CLC2, is associated with idiopathic generalized epilepsy (29), while the G826D mutation is in an equivalent position in the second CBS domain to the G859D mutation in CLC1 that is associated with congenital myotonia (28).
(§2) For IMPDH2, DNAs encoding residues 112-232 or the full-length protein (1-514) were amplified using human liver cDNA (Clontech) as template, and cloned into pHAT20 (Clontech) using 5′-AgeI and 3′-KpnI sites added to the primers. For the other constructs, DNAs encoding residues 582-840 of CLC2, or 416-551 of cystathionine â-synthase, were amplified using human liver cDNA as template, and cloned into pGEX-KG as above using 5′-BamHI and 3′-XhoI sites added to the primers. All mutations were created using the Stratagene QuikChange Site-directed Mutagenesis system.
(§3) Various concentrations of [^14C]-AMP, [γ^32P] […] Reactions were stopped by spotting 10 ìl onto a Millipore MF Filter Membrane disc and rapidly washing under high vacuum with 1 ml of ice-cold TBS. Radioactivity was determined on the filters by scintillation counting. Non-specific binding (which was trivial) was determined by performing the assay with GST as a control, and was subtracted. […]

CLC2 CBS1-2 (G715E) = molecular target: T2, CLC2 CBS1-2 (G715E) (Homo sapiens, UniProt P51788, G715E); test: Filter binding assay, GST-CBS domain fusion; settings: single-site model
T2 construct: DNAs encoding residues 582-840 of CLC2; made in house; host or cells: E. coli BL21 (DE3)
T2 sequence (P51788 582-840 G715E): as the sequence (P51788 582-840 G828D) above, with G134E, D247G counted along it
Text: as §1, §2, §3

[2] = molecular target: T3, recombinant á1â1γ2 heterotrimer (H383R) (Homo sapiens, UniProt Q9UGJ0, H383R); test: AMPK heterotrimer kinase assay, activation by AMP; assay type: biochemical; settings: slow lysis; estimate somewhat less accurate; read-out: A0.5
T3 construct: expressed in transfected cells; host or cells: CCL13 cells
T3 sequence (Q9UGJ0 whole entry H383R): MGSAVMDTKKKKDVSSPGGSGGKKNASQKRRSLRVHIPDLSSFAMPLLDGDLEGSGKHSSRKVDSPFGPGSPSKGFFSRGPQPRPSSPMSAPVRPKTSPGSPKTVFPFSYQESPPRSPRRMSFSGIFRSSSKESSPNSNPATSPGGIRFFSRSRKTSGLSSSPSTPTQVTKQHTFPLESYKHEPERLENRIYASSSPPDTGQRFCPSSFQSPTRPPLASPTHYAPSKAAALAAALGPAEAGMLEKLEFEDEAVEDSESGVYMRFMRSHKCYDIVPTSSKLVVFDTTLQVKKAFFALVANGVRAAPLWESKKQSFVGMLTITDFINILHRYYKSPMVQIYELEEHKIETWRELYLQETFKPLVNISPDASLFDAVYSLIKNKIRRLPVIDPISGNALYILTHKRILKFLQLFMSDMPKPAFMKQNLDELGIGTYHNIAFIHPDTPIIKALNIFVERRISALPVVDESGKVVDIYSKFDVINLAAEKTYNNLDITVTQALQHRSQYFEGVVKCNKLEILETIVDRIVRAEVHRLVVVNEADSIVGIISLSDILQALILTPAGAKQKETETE
T3 sequence (P54645 whole entry partner): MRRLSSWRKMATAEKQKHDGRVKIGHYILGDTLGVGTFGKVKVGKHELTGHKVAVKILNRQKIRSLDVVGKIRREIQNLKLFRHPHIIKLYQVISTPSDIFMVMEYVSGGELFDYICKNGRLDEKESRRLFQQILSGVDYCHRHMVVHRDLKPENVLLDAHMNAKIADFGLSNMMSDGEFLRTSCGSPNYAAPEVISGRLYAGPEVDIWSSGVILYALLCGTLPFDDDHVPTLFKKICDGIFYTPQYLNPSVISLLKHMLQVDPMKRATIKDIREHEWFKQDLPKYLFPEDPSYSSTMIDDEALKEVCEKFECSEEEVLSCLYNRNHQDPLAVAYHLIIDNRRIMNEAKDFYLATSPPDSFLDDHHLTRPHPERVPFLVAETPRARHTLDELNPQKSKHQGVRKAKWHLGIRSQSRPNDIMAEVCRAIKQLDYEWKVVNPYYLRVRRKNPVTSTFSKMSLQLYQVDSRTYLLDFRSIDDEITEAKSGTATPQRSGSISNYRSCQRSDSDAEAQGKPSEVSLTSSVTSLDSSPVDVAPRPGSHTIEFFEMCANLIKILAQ
T3 sequence (P80386 whole entry partner): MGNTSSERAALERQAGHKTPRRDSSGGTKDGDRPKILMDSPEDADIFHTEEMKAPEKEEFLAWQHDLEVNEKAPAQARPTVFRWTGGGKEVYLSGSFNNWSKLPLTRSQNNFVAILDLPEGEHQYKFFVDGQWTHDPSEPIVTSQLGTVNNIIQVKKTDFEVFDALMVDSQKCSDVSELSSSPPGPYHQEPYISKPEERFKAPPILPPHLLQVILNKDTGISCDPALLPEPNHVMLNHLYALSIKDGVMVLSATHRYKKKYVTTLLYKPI
Text: (§4) Plasmids expressing myc-tagged á1, â1 and γ1, γ2 (with or without WPWS mutations) or γ3 were expressed in CCL13 cells and the recombinant complexes immunoprecipitated using anti-myc antibodies.
(§5) For this reason, the estimates of A0.5 for the H383R and T400N mutants are somewhat less accurate than the others, while no value could be obtained for the R531 G mutant. […] With some mutants, the maximal activation also appeared to be affected.
(§6) PCDNA plasmids (14,25,32) encoding á1, â1 and γ1, γ2 or γ3 were expressed in CCL13 cells (25), subject to “rapid lysis”, immunoprecipitated using anti-myc antibody, and assayed as described previously (33). “Slow lysis” of CCL13 cells was as described by Stein et al (34).

[3] = molecular target: T4, recombinant á1â1γ2 heterotrimer (R302Q) (Homo sapiens, UniProt Q9UGJ0, R302Q); test: AMPK heterotrimer kinase assay, activation by AMP; assay type: biochemical
T4 construct: expressed in transfected cells; host or cells: CCL13 cells
T4 sequence (Q9UGJ0 whole entry R302Q): as the sequence (Q9UGJ0 whole entry H383R) above, with R302Q, R383H counted along it
T4 sequence (P54645 whole entry partner): as the sequence (P54645 whole entry partner) above
T4 sequence (P80386 whole entry partner): as the sequence (P80386 whole entry partner) above
Text: as §4, §5, §6

[4] = molecular target: T5, recombinant á1â1γ2 heterotrimer (T400N) (Homo sapiens, UniProt Q9UGJ0, T400N); test: AMPK heterotrimer kinase assay, activation by AMP; assay type: biochemical; settings: slow lysis; estimate somewhat less accurate; read-out: A0.5
T5 construct: expressed in transfected cells; host or cells: CCL13 cells
T5 sequence (Q9UGJ0 whole entry T400N): as the sequence (Q9UGJ0 whole entry H383R) above, with R383H, T400N counted along it
T5 sequence (P54645 whole entry partner): as the sequence (P54645 whole entry partner) above
T5 sequence (P80386 whole entry partner): as the sequence (P80386 whole entry partner) above
Text: as §4, §5, §6

[5] = molecular target: recombinant á1â1γ2 heterotrimer (Lins) (Homo sapiens, UniProt Q9UGJ0, INS350L); test: AMPK heterotrimer kinase assay, activation by AMP; assay type: biochemical; settings: immunoprecipitated from CCL13 cells, slow lysis; read-out: A0.5
Sequence of recombinant á1â1γ2 heterotrimer (Lins) (Q9UGJ0 with tags, fused parts or gaps INS350L): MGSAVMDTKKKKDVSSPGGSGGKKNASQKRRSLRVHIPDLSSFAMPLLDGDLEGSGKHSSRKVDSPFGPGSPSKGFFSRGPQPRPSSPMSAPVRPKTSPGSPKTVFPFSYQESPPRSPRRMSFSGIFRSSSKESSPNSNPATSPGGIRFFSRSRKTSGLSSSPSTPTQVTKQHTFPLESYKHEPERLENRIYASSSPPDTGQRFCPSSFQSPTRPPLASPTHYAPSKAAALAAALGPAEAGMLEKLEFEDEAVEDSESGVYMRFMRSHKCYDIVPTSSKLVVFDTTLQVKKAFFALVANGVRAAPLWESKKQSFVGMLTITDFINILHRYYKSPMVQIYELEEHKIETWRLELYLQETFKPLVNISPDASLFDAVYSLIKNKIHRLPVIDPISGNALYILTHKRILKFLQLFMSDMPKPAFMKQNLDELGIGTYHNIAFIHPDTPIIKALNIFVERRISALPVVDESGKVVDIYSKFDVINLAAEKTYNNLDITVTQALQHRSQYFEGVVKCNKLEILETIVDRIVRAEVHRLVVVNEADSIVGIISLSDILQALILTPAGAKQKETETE
Text: as §4, §5, §6

[6] = molecular target: T6, recombinant á1â1γ3 heterotrimer (Homo sapiens, UniProt Q9UGI9); test: AMPK heterotrimer kinase assay, activation by AMP; assay type: biochemical
T6 construct: expressed in transfected cells; host or cells: CCL13 cells
T6 sequence (Q9UGI9 whole entry): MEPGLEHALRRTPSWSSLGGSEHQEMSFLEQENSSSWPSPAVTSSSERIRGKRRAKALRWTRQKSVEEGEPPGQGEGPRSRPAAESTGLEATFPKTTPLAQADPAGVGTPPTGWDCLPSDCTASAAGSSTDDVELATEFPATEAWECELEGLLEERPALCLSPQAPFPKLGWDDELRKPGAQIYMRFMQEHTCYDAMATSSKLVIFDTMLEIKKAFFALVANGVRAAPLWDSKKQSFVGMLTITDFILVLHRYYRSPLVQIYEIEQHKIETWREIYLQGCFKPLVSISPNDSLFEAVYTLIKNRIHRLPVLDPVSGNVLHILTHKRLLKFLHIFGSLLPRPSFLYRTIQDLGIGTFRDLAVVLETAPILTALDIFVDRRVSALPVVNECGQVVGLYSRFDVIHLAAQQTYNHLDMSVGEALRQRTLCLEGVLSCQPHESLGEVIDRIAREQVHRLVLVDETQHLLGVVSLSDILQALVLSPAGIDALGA
T6 sequence (P54645 whole entry partner): as the sequence (P54645 whole entry partner) above
T6 sequence (P80386 2-270 partner limits assumed): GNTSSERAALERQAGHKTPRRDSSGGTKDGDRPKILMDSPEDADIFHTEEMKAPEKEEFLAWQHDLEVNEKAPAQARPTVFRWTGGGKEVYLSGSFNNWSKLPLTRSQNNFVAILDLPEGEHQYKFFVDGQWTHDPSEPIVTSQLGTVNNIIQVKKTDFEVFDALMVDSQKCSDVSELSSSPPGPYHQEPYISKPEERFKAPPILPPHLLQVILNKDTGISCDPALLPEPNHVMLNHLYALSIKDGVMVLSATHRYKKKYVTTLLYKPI
Text: as §4, §6

[7] = molecular target: T7, recombinant á1â1γ1 heterotrimer (Rattus norvegicus, UniProt P80385); test: AMPK heterotrimer kinase assay, activation by AMP; assay type: biochemical
T7 construct: expressed in transfected cells; host or cells: CCL13 cells
T7 sequence (P80385 whole entry): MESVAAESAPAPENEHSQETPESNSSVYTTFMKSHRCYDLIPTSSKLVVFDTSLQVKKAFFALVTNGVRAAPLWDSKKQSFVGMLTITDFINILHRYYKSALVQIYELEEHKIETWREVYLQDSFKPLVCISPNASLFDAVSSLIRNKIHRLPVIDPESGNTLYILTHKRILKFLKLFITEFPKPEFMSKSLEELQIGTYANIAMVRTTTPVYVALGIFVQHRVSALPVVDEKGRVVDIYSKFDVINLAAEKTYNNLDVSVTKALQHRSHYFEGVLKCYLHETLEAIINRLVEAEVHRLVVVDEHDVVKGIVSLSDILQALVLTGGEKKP
T7 sequence (P54645 whole entry partner): as the sequence (P54645 whole entry partner) above
T7 sequence (P80386 whole entry partner): as the sequence (P80386 whole entry partner) above
Text: as §4, §6

rat liver AMPK = settings: read-out: half-maximal effect (A0.5), cited from earlier work
CLC2 CBS1-2 (WT) = molecular target: T8, CLC2 CBS1-2 (WT) (Homo sapiens, UniProt P51788); test: Filter binding assay, GST-CBS domain fusion; settings: single-site model
T8 construct: DNAs encoding residues 582-840 of CLC2; made in house; host or cells: E. coli BL21 (DE3)
T8 sequence (P51788 582-840): as the sequence (P51788 582-840 G828D) above, with D247G counted along it
Description: ATP or [^35S]SAM were incubated with GST-CBS domain fusions (1 ìM for WT, up to 20 μM for some mutants) for 10 min at 25° C. in a 20 il total volume in TBS. Reactions were stopped by spotting 10 ìl onto a Millipore MF Filter Membrane disc and rapidly washing under high vacuum with 1 ml of ice-cold TBS. Radioactivity was determined on the filters by scintillation counting. Non-specific binding (which was trivial) was determined by performing the assay with GST as a control, and was subtracted. […] Data were fitted to the binding models given in the text, using GraphPad Prism 3.

IMPDH2 Tetramer (R224P) = molecular target: T9, IMPDH2 Tetramer (R224P) (Homo sapiens, UniProt P12268, R224P); test: Filter binding assay, full-length protein
T9 construct: the full-length protein (1-514); His tag (pHAT20 vector); made in house; host or cells: E. coli
Text: as §2
(§7) The IMPDH2 constructs were His-tagged and were purified on chelating-Sepharose (Pharmacia) charged with 50 mM CoCl2 according to manufacturer's instructions.
(§8) Various concentrations of [^14C]-AMP, [γ^32P] […] Reactions were stopped by spotting 10 ìl onto a Millipore MF Filter Membrane disc and rapidly washing under high vacuum with 1 ml of ice-cold TBS. Radioactivity was determined on the filters by scintillation counting. Non-specific binding (which was trivial) was determined by performing the assay with GST as a control, and was subtracted. […] Data were fitted to the binding models given in the text, using GraphPad Prism 3. Estimates of parameters resulting from fits are quoted in the text and Table 1±standard error, and the curves shown in figures are theoretical curves obtained using those estimates.

IMPDH2 Tetramer (WT) = molecular target: T10, IMPDH2 Tetramer (WT) (Homo sapiens, UniProt P12268); test: Filter binding assay, full-length protein; settings: for Kd: read-out: B0.5
T10 construct: the full-length protein (1-514); His tag (pHAT20 vector); made in house; host or cells: E. coli
Text: as §2, §7, §8

[8] = molecular target: T11, full-length IMPDH2 (wild type) (Homo sapiens, UniProt P12268); test: Enzymatic assay of IMPDH2; assay type: biochemical
T11 construct: DNAs encoding residues 112-232 or the full-length protein (1-514) were amplified using human liver cDNA; His tag (vector pHAT20); made in house; host or cells: E. coli
Description: (§9) IMPDH2 was assayed by following the increase in absorbance at 340 nm due to formation of NADH in a BMG Fluostar Optima plate reader at 30° C. in plate mode. The assay buffer contained 50 mM Tris/HCl, 100 mM KCl, 1 mM DTT, 3 mM EDTA, and 5 mM MgCl. […] The total volume was 200 μl and the reaction started by addition of IMP (or NAD^+ where [IMP] was the variable).

[9] = molecular target: T12, full-length IMPDH2 (R224P) (Homo sapiens, UniProt P12268, R224P); test: Enzymatic assay of IMPDH2; assay type: biochemical; settings: highest concentration used 2 mM
T12 construct: DNAs encoding residues 112-232 or the full-length protein (1-514) were amplified using human liver cDNA; His tag (vector pHAT20); made in house; host or cells: E. coli
Description: as §9

AMPK-γ2 CBS1-2 construct = molecular target: T13, AMPK-γ2 CBS1-2 construct (Homo sapiens, UniProt Q9UGJ0); test: Displacement of [14C]AMP by unlabelled MgATP; assay type: binding; settings: high concentrations of MgATP
T13 construct: the N-terminal pair (CBS1-2, residues 274-410); made in house; host or cells: E. coli BL21 (DE3)
T13 sequence (Q9UGJ0 274-410): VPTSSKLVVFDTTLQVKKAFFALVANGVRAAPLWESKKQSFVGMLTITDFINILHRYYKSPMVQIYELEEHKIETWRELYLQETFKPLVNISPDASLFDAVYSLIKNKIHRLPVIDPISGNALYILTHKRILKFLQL
Description: This yielded estimates for KdAMP and KdATP of 51 and 180 iM. These are very close to the estimates obtained by direct binding measurements (53 and 175 iÌ).
as §8

[10] = immunoprecipitated from CCL13 cells, slow lysis, read-out: A0.5

Kd [1]: 14300 ± 550 µM
Kd (CLC2 CBS1-2 (G715E)): 10400 ± 1300 µM
EC50 [2]: 51 ± 40 µM
stimulation by AMP [3]: 3 fold
EC50 [3, 10]: 23 ± 6 µM
EC50 [4]: 95 ± 32 µM
EC50 [5]: 9 ± 4 µM
stimulation by AMP [6]: 1.5 fold
EC50 ([6]; approximate only, read-out: A0.5): 2 ± 2 µM
stimulation by AMP [7]: 3.3 fold
EC50 [7, 10]: 13 ± 2 µM
Kd (CLC2 CBS1-2 (WT)): 1060 ± 80 µM
SMILES: Nc1ncnc2c1ncn2[C@@H]1O[C@H](COP(=O)(O)O)[C@@H](O)[C@H]1O [AMP, adenosine monophosphate]
EC50 (rat liver AMPK; assays in 200 μM ATP): 4.4 µM
EC50 (rat liver AMPK; at 4 mM ATP): 29 µM

h (Hill coefficient) (IMPDH2 Tetramer (R224P)): 0.9 ± 0.1
Kd (IMPDH2 Tetramer (R224P); Hill equation, 4 sites, read-out: B0.5): 64000 ± 5000 µM
h (Hill coefficient) (IMPDH2 Tetramer (WT)): 1.7 and 1.7 ± 0.2
Kd (IMPDH2 Tetramer (WT); Hill equation, 4 sites): 770 µM
Kd (IMPDH2 Tetramer (WT)): 760 µM
Hill coefficient of activation [8]: 1.3±0.1
stimulation of IMPDH activity (Vmax) [8]: > 4 fold
EC50 ([8]; read-out: A0.5 for ATP activation, as printed in discussion): 440 µM
EC50 ([8]; read-out: half-maximal effect): 440 ± 50 µM
effect on activity [9]: no effect
displacement of [14C]AMP binding (AMPK-γ2 CBS1-2 construct): completely displaced
SMILES: Nc1ncnc2c1ncn2[C@@H]1O[C@H](COP(=O)(O)OP(=O)(O)OP(=O)(O)O)[C@@H](O)[C@H]1O [ATP]
